Assay results from patent publication US20250388605A1, “HETEROBIFUNCTIONAL COMPOUNDS AND METHODS OF TREATING DISEASE” (Halda Therapeutics OpCo, Inc., priority 2022, published 2025).

Columns and labels:
[1] = test system: T-Rex 293 cell line SC3 cells having increased expression of androgen receptor protein due to exposure to doxycycline; experiment: Cellular growth inhibition, T-Rex 293 SC3 cells with doxycycline (increased androgen receptor expression), CellTiter-Glo; assay type: cell-based; conditions: T-Rex 293 SC3 cells with 10 ng/mL doxycycline (increased androgen receptor expression), 72 hours, CellTiter-Glo 2.0
Procedure, shortened: (§1)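 Growth inhibition is measured in an inducible AR-expressing T-Rex 293 clone, SC3, cultured with or without 10 ng/mL doxycycline in hormone-depleted medium. Test compounds are applied for 72 hours. GI50 values derive from CellTiter-Glo 2.0 signal fitted by four-parameter regression.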

[2] = test system: T-Rex 293 cell line SC3 cells lacking increased expression of androgen receptor protein; experiment: Cellular growth inhibition, T-Rex 293 SC3 cells without doxycycline (no increased androgen receptor expression), CellTiter-Glo; assay type: cell-based; conditions: T-Rex 293 SC3 cells not exposed to doxycycline (no increased androgen receptor expression), 72 hours
Procedure, shortened: as §1

VCaP cells = experiment: Cellular growth inhibition assay for VCaP cells, CellTiter-Glo; assay type: cell-based, human; conditions: 72 hours
Procedure, shortened: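 GI50 values come from four-parameter curve fits of luminescence data normalized to a zero baseline. Compound, in medium with 0.5% DMSO, was added one day after plating and left for 72 h before CellTiter-Glo 2.0 addition.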

T47D cells = experiment: Cellular Growth Inhibition Assay for T47D Cells (CellTiter-Glo); assay type: cell-based, human; conditions: 72 hours
Procedure, shortened: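 GI50 values derive from four-parameter regression of CellTiter-Glo 2.0 luminescence, using zero luminescence as baseline. Human breast cancer T47D cells (3000/well; DMEM, 10% FBS, 0.2 units/mL insulin) were exposed for 72 h to compound dilutions at 0.5% DMSO, with dosing starting 24 h after seeding.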

Compound | GI50 [1] [nM] | GI50 [2] [nM] | GI50 (VCaP cells; Homo sapiens) [nM] | GI50 (T47D cells; Homo sapiens) [nM] | GI50 (VCaP cells) [nM] | GI50 (T47D cells) [nM]
CCS(=O)(=O)c1ccc(Oc2ccc(CN3CC4(CCN(c5ncc(C(=O)N[C@H]6C(C)(C)[C@H](Oc7ccc(C#N)c(Cl)c7)C6(C)C)cn5)CC4)C3)c(F)c2)c(-c2cn(C)c(=O)c3[nH]ccc23)c1 [Compound I-275] | < 500 | < 500 | < 500 | < 500 | – | –
Cn1cc(-c2cc(C(C)(C)O)ccc2OC2CCC(N3CC(OC4CCN(c5ncc(C(=O)NC6C(C)(C)C(Oc7ccc(C#N)c(Cl)c7)C6(C)C)cn5)CC4)C3)CC2)c2cc[nH]c2c1=O (centres unmarked) [Compound I-289] | < 500 | 1500 to 3000 | – | – | 500 to 1500 | 1500 to 3000
Cn1cc(-c2cc(C(C)(C)O)ccc2Oc2ccc(N3CC(CC4CN(c5ccc(C(=O)N[C@H]6C(C)(C)[C@H](Oc7ccc(C#N)c(Cl)c7)C6(C)C)cc5)C4)C3)cc2)c2cc[nH]c2c1=O [Compound I-336] | < 500 | > 3000 | > 3000 | < 500 | – | –
Cn1cc(-c2cc(C(C)(C)O)ccc2Oc2ccc(N3CC(CC4CN(c5cnc(C(=O)N[C@H]6C(C)(C)[C@H](Oc7ccc(C#N)c(Cl)c7)C6(C)C)nc5)C4)C3)cc2)c2cc[nH]c2c1=O [Compound I-323] | 500 to 1500 | 500 to 1500 | < 500 | < 500 | – | –
CCS(=O)(=O)Nc1ccc(Oc2cccc(N3CCC(OC4CCN(c5ncc(C(=O)N[C@H]6C(C)(C)[C@H](Oc7ccc(C#N)c(Cl)c7)C6(C)C)cn5)CC4)CC3)c2)c(-c2cn(C)c(=O)c3[nH]ccc23)c1 [Compound I-82] | < 500 | > 3000 | < 500 | < 500 | – | –
Cn1cc(-c2cc(C(C)(C)O)ccc2Oc2cccc(CC3CC4(C3)CN(c3ncc(C(=O)N[C@H]5C(C)(C)[C@H](Oc6ccc(C#N)c(Cl)c6)C5(C)C)cn3)C4)c2)c2cc[nH]c2c1=O [Compound I-321] | < 500 | < 500 | – | – | < 500 | < 500
CCS(=O)(=O)Nc1ccc(Oc2cccc(C3CN(CC4CCN(c5ncc(C(=O)N[C@H]6C(C)(C)[C@H](Oc7ccc(C#N)c(Cl)c7)C6(C)C)cn5)CC4)C3)c2)c(-c2cn(C)c(=O)c3[nH]ccc23)c1 [Compound I-78] | < 500 | < 500 | < 500 | < 500 | – | –
Cn1cc(-c2cc(C(C)(C)O)ccc2OC(CCCOC2CCN(c3ncc(C(=O)N[C@H]4C(C)(C)[C@H](Oc5ccc(C#N)c(Cl)c5)C4(C)C)cn3)CC2)C2CC2)c2cc[nH]c2c1=O (some centres unmarked) [Compound I-244] | < 500 | 500 to 1500 | – | – | < 500 | 500 to 1500
Cn1cc(-c2cc(C(C)(C)O)ccc2Oc2ccc(CN3CC4(C3)CN(c3ncc(C(=O)N[C@H]5C(C)(C)[C@H](Oc6ccc(C#N)c(Cl)c6)C5(C)C)cn3)CCO4)cc2)c2cc[nH]c2c1=O [Compound I-300] | < 500 | < 500 | – | – | < 500 | < 500
Cn1cc(-c2cc(C(C)(C)O)ccc2Oc2ccc(CCC3CN(c4ncc(C(=O)N[C@H]5C(C)(C)[C@H](Oc6ccc(C#N)c(Cl)c6)C5(C)C)cn4)CCO3)cc2)c2cc[nH]c2c1=O (some centres unmarked) [Compound I-305] | < 500 | > 3000 | < 500 | < 500 | – | –
CCS(=O)(=O)Nc1ccc(Oc2cccc(CC3CCN(c4ncc(C(=O)N[C@H]5C(C)(C)[C@H](Oc6ccc(C#N)c(Cl)c6)C5(C)C)cn4)CC3)c2)c(-c2cn(C)c(=O)c3[nH]ccc23)c1 [Compound I-23] | < 500 | < 500 | < 500 | < 500 | – | –
Cn1cc(-c2cc(C(C)(C)O)ccc2Oc2cccc(CC3CCC4(CC3)CCN(c3ncc(C(=O)N[C@H]5C(C)(C)[C@H](Oc6ccc(C#N)c(Cl)c6)C5(C)C)cn3)CC4)c2)c2cc[nH]c2c1=O [Compound I-318] | < 500 | > 3000 | – | – | > 3000 | < 500
Cn1cc(-c2cc(NS(=O)(=O)C3CC3)ccc2Oc2cccc(N3CC(OC4CCN(c5ncc(C(=O)N[C@H]6C(C)(C)[C@H](Oc7ccc(C#N)c(Cl)c7)C6(C)C)cn5)CC4)C3)c2F)c2cc[nH]c2c1=O [Compound I-171] | < 500 | > 3000 | – | – | > 3000 | < 500
Cn1cc(-c2cc(C(C)(C)O)ccc2Oc2cccc(N3CC(CN4CCN(c5ncc(C(=O)N[C@H]6C(C)(C)[C@H](Oc7ccc(C#N)c(Cl)c7)C6(C)C)cn5)C5(CC5)C4)C3)c2F)c2cc[nH]c2c1=O [Compound I-273] | < 500 | 500 to 1500 | – | – | < 500 | < 500
CCS(=O)(=O)Nc1ccc(Oc2cccc(N3CC(OC4CCN(c5ncc(C(=O)N[C@H]6C(C)(C)[C@H](Oc7ccc(C#N)c(Cl)c7)C6(C)C)cn5)CC4)C3)c2)c(-c2cn(C)c(=O)c3[nH]ccc23)c1 [Compound I-181] | < 500 | > 3000 | – | – | < 500 | < 500
Cn1cc(-c2cc(C(C)(C)O)ccc2Oc2ccc(CCC3CCN(c4ncc(C(=O)NC5C(C)(C)C(Oc6ccc(C#N)c(Cl)c6)C5(C)C)cn4)CC3)cn2)c2cc[nH]c2c1=O (centres unmarked) [Compound I-287, N-[3-(3-chloro-4-cyano-phenoxy)-2,2,4,4-tetramethyl-cyclobutyl]-2-[4-[2-[6-[4-(1-hydroxy-1-methyl-ethyl)-2-(6-methyl-7-oxo-1H-pyrrolo[2,3-c]pyridin-4-yl)phenoxy]-3-pyridyl]ethyl]-1-piperidyl]pyrimidine-5-carboxamide] | < 500 | > 3000 | 500 to 1500 | < 500 | – | –
Cn1cc(-c2cc(C(C)(C)O)ccc2OC2CCC(N3CC(OC4CCN(c5ncc(C(=O)NC6C(C)(C)C(Oc7ccc(C#N)c(Cl)c7)C6(C)C)cn5)CC4)C3)C2)c2cc[nH]c2c1=O (centres unmarked) [Compound I-266, N-[3-(3-chloro-4-cyano-phenoxy)-2,2,4,4-tetramethyl-cyclobutyl]-2-[4-[1-[3-[4-(1-hydroxy-1-methyl-ethyl)-2-(6-methyl-7-oxo-1H-pyrrolo[2,3-c]pyridin-4-yl)phenoxy]cyclopentyl]azetidin-3-yl]oxy-1-piperidyl]pyrimidine-5-carboxamide] | < 500 | 1500 to 3000 | < 500 | 500 to 1500 | – | –
Cn1cc(-c2ccccc2Oc2cccc(CCOC3CCN(c4ncc(C(=O)N[C@H]5C(C)(C)[C@H](Oc6ccc(C#N)c(Cl)c6)C5(C)C)cn4)CC3)c2)c2cc[nH]c2c1=O [Compound I-146] | < 500 | > 3000 | – | – | < 500 | < 500
Cn1cc(-c2cc(C(C)(C)O)ccc2OC2CC(OC3CCN(c4ncc(C(=O)NC5C(C)(C)C(Oc6ccc(C#N)c(Cl)c6)C5(C)C)cn4)CC3)C2)c2cc[nH]c2c1=O (centres unmarked) [Compound I-274, N-[3-(3-chloro-4-cyano-phenoxy)-2,2,4,4-tetramethyl-cyclobutyl]-2-[4-[3-[4-(1-hydroxy-1-methyl-ethyl)-2-(6-methyl-7-oxo-1H-pyrrolo[2,3-c]pyridin-4-yl)phenoxy]cyclobutoxy]-1-piperidyl]pyrimidine-5-carboxamide] | < 500 | < 500 | < 500 | < 500 | – | –
Cn1cc(-c2cc(C(C)(C)O)ccc2Oc2ccc(OC[C@@H]3CCCN(c4ncc(C(=O)N[C@H]5C(C)(C)[C@H](Oc6ccc(C#N)c(Cl)c6)C5(C)C)cn4)C3)cc2)c2cc[nH]c2c1=O [Compound I-339] | < 500 | > 3000 | > 3000 | < 500 | – | –
